Results reported in ChEMBL document CHEMBL1139932, “Structure-based organic synthesis of unnatural aeruginosin hybrids as potent inhibitors of thrombin” (Bioorg Med Chem Lett, 2007).

Target: Prothrombin (Homo sapiens, UniProt P00734)
Test: Inhibition of thrombin

IC50	Compound
120 nM	CC(C)C[C@@H](NC(=O)[C@H](O)Cc1ccccc1)C(=O)N1[C@H](C(=O)NCCC2=CCN(C(=N)N)C2)C[C@@H]2CCCC[C@@H]21
5600 nM	CC(C)C[C@@H](NC(=O)[C@H](O)Cc1ccccc1)C(=O)N1[C@H](C(=O)NCCCCN=C(N)N)C[C@@H]2CC[C@@H](O)C[C@@H]21
1500 nM	CC(C)C[C@@H](NC(=O)[C@H](O)Cc1ccccc1)C(=O)N1[C@H](C(=O)NCCCCN=C(N)N)C[C@@H]2CCCC[C@@H]21
220 nM	CC(C)C[C@@H](NC(=O)[C@H](O)Cc1ccccc1)C(=O)N1[C@H](C(=O)NCCC2=CCN(C(=N)N)C2)C[C@@H]2CC[C@@H](O)C[C@@H]21
1.6 nM	CC(C)[C@H](Cl)[C@@H](NC(=O)[C@H](O)Cc1ccccc1)C(=O)N1[C@H](C(=O)NCc2ccc(C(=N)N)cc2)C[C@@H]2CCCC[C@@H]21
101 nM	CC[C@H](C)[C@@H](N)C(=O)N1[C@H](C(=O)NCc2ccc(C(=N)N)cc2)C[C@@H]2CCCC[C@@H]21
3.3 nM	CC[C@H](C)[C@@H](NC(=O)[C@H](O)Cc1ccccc1)C(=O)N1[C@H](C(=O)NCc2ccc(C(=N)N)cc2)C[C@@H]2CCCC[C@@H]21
97 nM	CC(C)C[C@@H](NC(=O)[C@H](O)Cc1ccccc1)C(=O)N1[C@H](C(=O)NCc2ccc(C(=N)N)cc2)C[C@@H]2CCCC[C@@H]21
310 nM	CC(C)[C@H](Cl)[C@@H](NC(=O)[C@H](O)Cc1ccccc1)C(=O)N1[C@H](C(=O)NCCCCN=C(N)N)C[C@@H]2CC[C@@H](O)C[C@@H]21
334 nM	CC[C@H](C)[C@@H](NC(=O)CCc1ccccc1)C(=O)N1[C@H](C(=O)NCc2ccc(C(=N)N)cc2)C[C@@H]2CCCC[C@@H]21
786 nM	CC[C@H](C)[C@@H](NC(C)=O)C(=O)N1[C@H](C(=O)NCc2ccc(C(=N)N)cc2)C[C@@H]2CCCC[C@@H]21
171 nM	CC[C@H](C)C(NC(=O)OC(C)(C)C)C(=O)N1[C@H](C(=O)NCc2ccc(C(=N)N)cc2)C[C@@H]2CCCC[C@@H]21 (single isomer, unassigned)
53 nM	CC[C@H](C)C(NC(=O)[C@@H](C)O)C(=O)N1[C@H](C(=O)NCc2ccc(C(=N)N)cc2)C[C@@H]2CCCC[C@@H]21 (single isomer, unassigned)

Compound	IC50
CC[C@@H](C)[C@@H](NC(=O)[C@H](O)Cc1ccccc1)C(=O)N1CCC[C@H]1C(=O)NCc1ccc(C(=N)N)cc1	7 nM
N=C(N)c1ccc(CNC(=O)[C@@H]2C[C@@H]3CCCC[C@@H]3N2C(=O)C(NC(=O)[C@H](O)Cc2ccccc2)C2CCCCC2)cc1 (stereo partly specified)	3.4 nM
CO[C@H](CO)C(=O)N[C@@H](C(=O)N1[C@H](C(=O)NCCC2=CCN(C(=N)N)C2)C[C@@H]2C[C@H](O)[C@@H](O)C[C@@H]21)[C@@H](Cl)C(C)C	11 nM
